Values quoted from earlier work, collected in patent US20220079925A1, “COMPOSITIONS COMPRISING TACROLIMUS FOR THE TREATMENT OF INTRAOCULAR INFLAMMATORY EYE DISEASES” (NOVALIQ GMBH, priority 2016, published 2022).

Legend:
[1] = topical administration
T-lymphocyte = conditions: inhibiting T-lymphocyte signal transduction and cell proliferation

Structure (SMILES): C=CC[C@@H]1/C=C(\C)C[C@H](C)C[C@H](OC)[C@H]2O[C@@](O)(C(=O)C(=O)N3CCCC[C@H]3C(=O)O[C@H](/C(C)=C/[C@@H]3CC[C@@H](O)[C@H](OC)C3)[C@H](C)[C@@H](O)CC1=O)[C@H](C)C[C@@H]2OC [Tacrolimus]
- ability to penetrate tissue barrier [1]: poor
- potency relative to cyclosporine (T-lymphocyte): 100 times
